The record followed here is patent US6635670B2, “sPLA2 inhibitors” (Eli Lilly and Company, priority 1999, dated 2003).

In the first assay the target is T1, recombinant human secreted phospholipase A2 (Homo sapiens, UniProt P14555).
T1 sequence (P14555 21-144): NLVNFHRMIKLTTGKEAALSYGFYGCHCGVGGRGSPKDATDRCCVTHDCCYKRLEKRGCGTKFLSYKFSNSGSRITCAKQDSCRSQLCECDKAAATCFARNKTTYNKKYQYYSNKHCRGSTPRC
Briefly: chromogenic assay for inhibitors of recombinant human secreted phospholipase A2. It is filed as biochemical.
Settings: not given
From the text:
The following chromogenic assay procedure was used to identify and evaluate inhibitors of recombinant human secreted phospholipase A2. The assay described herein has been adapted for high volume screening using 96 well microtiter plates. A general description of this assay method is found in the article, “Analysis of Human Synovial Fluid Phospholipase A2 on Short Chain Phosphatidylcholine-Mixed Micelles: Development of a Spectrophotometric Assay Suitable for a Microtiterplate Reader”, by Laure J. Reynolds, Lori L. Hughes, and Edward A Dennis, Analytical Biochemistry, 204, pp. 190-197, 1992 (the disclosure of which is incorporated herein by reference):
REACTION BUFFER —CaCl2. 2H2O (1.47 g/L) KCl (7.455 g/L) Bovine Serum Albumin (fatty acid free) (1 g/L) (Sigma A-7030, product of Sigma Chemical Co., St. Louis Mo., USA) TRIS HCl (3.94 g/L) pH 7.5 (adjust with NaOH)
ENZYME BUFFER-0.05 NaOAc.3H2O, pH 4.5 0.2 NaCl Adjust pH to 4.5 with acetic acid DTNB-5,5′-dithiobis-2-nitrobenzoic acid
RACEMIC DIHEPTANOYL THIO-PC racemic 1,2-bis(heptanoylthio)-1,2-dideoxy-sn-glycero-3-phosphorylcholine TRITON X-100™ prepare at 6.249 mg/ml in reaction buffer to equal […].
A measured volume of racemic dipheptanoyl thio PC supplied in chloroform at a concentration of 100 mg/ml is taken to dryness and redissolved in 10 millimolar
TRITON X-100™ nonionic detergent aqueous solution.
Reaction Buffer is added to the solution, then DTNB to give the Reaction Mixture.
The reaction mixture thus obtained contains 1 mM diheptanoly thio-PC substrate, 0.29 mm Triton X-100™ detergent, and 0.12 mm DTMB in a buffered aqueous solution at pH 7.5.
1. Add 0.2 ml reaction mixture to all wells;
2. Add 10 ul test compound (or solvent blank) to appropriate wells, mix 20 seconds;
3. Add 50 nanograms of sPLA2 (10 microliters) to appropriate wells;
4. Incubate plate at 40° C. for 30 minutes;
5. Read absorbance of wells at 405 nanometers with an automatic plate reader.
All compounds were tested in triplicate. Typically, compounds were tested at a final concentration of 5 ug/ml. […] Lack of color development at 405 nanometers evidenced inhibition. Compounds initially found to be active were reassayed to confirm their activity and, if sufficiently active, IC50 values were determined. […] In all cases, % inhibition measured at 405 nanometers generated by enzyme reactions containing inhibitors relative to the uninhibited control reactions was determined. Each sample was titrated in triplicate and result values were averaged for plotting and calculation of IC50 values. IC50 were determined by plotting log concentration versus inhibition values in the range from 10-90% inhibition.
What is called IC50 is the concentration needed to halve the response being measured. Regarding `CCc1c(C(=O)C(N)=O)c2c(OCC(=O)OC)cccc2n1Cc1ccccc1` [Compound 1, [[3-(2-Amino-1,2-dioxoethyl)-2-ethyl-1-(phenylmethyl)-1H-indol-4-yl]oxy]acetic acid methyl ester], the 50% inhibitory concentration (IC50) is 49 nM.

The assay is the same for the next values; noted with them: diheptanoyl thio-PC substrate, pH 7.5, 40° C. for 30 minutes, absorbance at 405 nanometers; read-out: Inhibition of human secreted PLA2 IC50 ± mean deviation (3-4 tests).
`CCc1c(C(=O)C(N)=O)c2c(OCC(=O)N[C@@H](Cc3ccccc3)C(=O)OC)cccc2n1Cc1ccccc1` [Compound 2E, N-[2-[[3-(Aminooxoacetyl)-2-ethyl-1-(phenylmethyl)-1H-indol-4-yl]oxy]acetyl]-L-phenylalanine Methyl Ester]: the concentration for half-maximal inhibition (IC50) was 666 nM.
For the molecule `CCc1c(C(=O)C(N)=O)c2c(OCC(=O)NC(C(=O)OC)C(=O)OC)cccc2n1Cc1ccccc1` [Compound 2F, [2-[[3-(Aminooxoacetyl)-2-ethyl-1-(phenylmethyl)-1H-indol-4-yl]oxy]acetamido]malonic Acid Dimethyl Ester], the half-inhibitory concentration (IC50) stood at 698 nM.
Same read-out and setting: the same measure for `CCc1c(C(=O)C(N)=O)c2c(OCC(=O)N[C@H](C(=O)OC)[C@@H](C)CC)cccc2n1Cc1ccccc1` [Compound 2H, N-[2-[[3-(Aminooxoacetyl)-2-ethyl-1-(phenylmethyl)-1H-indol-4-yl]oxy]acetyl]-L-isoleucine Methyl Ester]: 166 nM; for `CCc1c(C(=O)C(N)=O)c2c(OCC(=O)N[C@H](C(=O)O)C(C)C)cccc2n1Cc1ccccc1` [Compound 3G, N-[2-[[3-(Aminooxoacetyl)-2-ethyl-1-(phenylmethyl)-1H-indol-4-yl]oxy]acetyl]-L-valine]: 36.4 nM.
In the case of `CCc1c(C(=O)C(N)=O)c2c(OCC(=O)N[C@@H](CC(=O)O)C(=O)O)cccc2n1Cc1ccccc1` [Compound 3D, N-[2-[[3-(Aminooxoacetyl)-2-ethyl-1-(phenylmethyl)-1H-indol-4-yl]oxy]acetyl]-L-aspartic Acid], the 50% inhibitory concentration (IC50) was 132 nM.
Still for that read-out and setting: the same measure for `CCc1c(C(=O)C(N)=O)c2c(OCC(=O)N[C@@H](CC(=O)OC)C(=O)OC)cccc2n1Cc1ccccc1` [Compound 2D, N-[2-[[3-(Aminooxoacetyl)-2-ethyl-1-(phenylmethyl)-1H-indol-4-yl]oxy]acetyl]-L-aspartic Acid Dimethyl Ester]: 874 nM.
As to `CCc1c(C(=O)C(N)=O)c2c(OCC(=O)NC(C(=O)O)C(=O)O)cccc2n1Cc1ccccc1` [Compound 3F, [2-[[3-(Aminooxoacetyl)-2-ethyl-1-(phenylmethyl)-1H-indol-4-yl]oxy]acetamido]malonic Acid], the IC50 came out at 44.7 nM.
Regarding `CCc1c(C(=O)C(N)=O)c2c(OCC(=O)N[C@H](C(=O)O)[C@@H](C)CC)cccc2n1Cc1ccccc1` [Compound 3H, N-[2-[[3-(Aminooxoacetyl)-2-ethyl-1-(phenylmethyl)-1H-indol-4-yl]oxy]acetyl]-L-isoleucine], the IC50 came out at 25.1 nM.
`CCc1c(C(=O)C(N)=O)c2c(OCC(=O)N[C@@H](C)C(=O)O)cccc2n1Cc1ccccc1` [Compound 3B, N-[2-[[3-(Aminooxoacetyl)-2-ethyl-1-(phenylmethyl)-1H-indol-4-yl]oxy]acetyl]-L-alanine]: the half-maximal inhibitory concentration (IC50) amounted to 59 nM.
On the same count and under the same terms, as for `CCc1c(C(=O)C(N)=O)c2c(OCC(=O)N[C@@H](C)C(=O)OC)cccc2n1Cc1ccccc1` [Compound 2B, N-[2-[[3-(Aminooxoacetyl)-2-ethyl-1-(phenylmethyl)-1H-indol-4-yl]oxy]acetyl]-L-alanine Methyl Ester], the figure is 533 nM; as for `CCc1c(C(=O)C(N)=O)c2c(OCC(=O)N[C@@H](CC(C)C)C(=O)OC)cccc2n1Cc1ccccc1` [Compound 2C, N-[2-[[3-(Aminooxoacetyl)-2-ethyl-1-(phenylmethyl)-1H-indol-4-yl]oxy]acetyl]-L-leucine Methyl Ester], 82 nM.
For the molecule `CCc1c(C(=O)C(N)=O)c2c(OCC(=O)NCC(=O)OC)cccc2n1Cc1ccccc1` [Compound 2A, N-[2-[[3-(Aminooxoacetyl)-2-ethyl-1-(phenylmethyl)-1H-indol-4-yl]oxy]acetyl]glycine Methyl Ester], the IC50 came to 529 nM.
On the same count and under the same terms, the same measure for `CCc1c(C(=O)C(N)=O)c2c(OCC(=O)NCC(=O)O)cccc2n1Cc1ccccc1` [Compound 3A, N-[2-[[3-(Aminooxoacetyl)-2-ethyl-1-(phenylmethyl)-1H-indol-4-yl]oxy]acetyl]glycine]: 71 nM; for `CCc1c(C(=O)C(N)=O)c2c(OCC(=O)N[C@@H](Cc3ccccc3)C(=O)O)cccc2n1Cc1ccccc1` [Compound 3E, N-[2-[[3-(Aminooxoacetyl)-2-ethyl-1-(phenylmethyl)-1H-indol-4-yl]oxy]acetyl]-L-phenylalanine]: 64 nM.
The same measure, in the same setting: the same measure for `CCc1c(C(=O)C(N)=O)c2c(OCC(=O)N[C@@H](CC(C)C)C(=O)O)cccc2n1Cc1ccccc1` [Compound 3C, N-[2-[[3-(Aminooxoacetyl)-2-ethyl-1-(phenylmethyl)-1H-indol-4-yl]oxy]acetyl]-L-leucine]: 28 nM.
`CCc1c(C(=O)C(N)=O)c2c(OCC(=O)N[C@H](C(=O)OC)C(C)C)cccc2n1Cc1ccccc1` [Compound 2G, N-[2-[[3-(Aminooxoacetyl)-2-ethyl-1-(phenylmethyl)-1H-indol-4-yl]oxy]acetyl]-L-valine Methyl Ester]: the IC50 was 283 nM.

The assay is the same for the next values; noted with them: statement in words.
`CCc1c(C(=O)C(N)=O)c2c(OCC(=O)OC)cccc2n1Cc1ccccc1` [Compound 1, [[3-(2-Amino-1,2-dioxoethyl)-2-ethyl-1-(phenylmethyl)-1H-indol-4-yl]oxy]acetic acid methyl ester]: the “activity in inhibiting SPLA2” value was “highly active”.
